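These data come from cells grown in 96-well plates and exposed to compound for 48 hours at five concentrations. GI50 marks 50% less growth.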 The source made the active and inactive calls. Rule as the data show it: active = GI50 up to about 1.1 µM and inactive = higher.
What was measured:
Assay in all cases: DTP human tumour cell line panel, 48 h
A498 = system: A498
ACHN = system: ACHN
CAKI-1 = system: CAKI-1
HCC 2998 = system: HCC 2998
HOP-18 = system: HOP-18
HOP-92 = system: HOP-92
LXFL 529 = system: LXFL 529
M14 = system: M14
MOLT-4 = system: MOLT-4
Malme-3M = system: Malme-3M
NCI-H226 = system: NCI-H226
NCI-H522 = system: NCI-H522
RXF 393 = system: RXF 393
RXF 631 = system: RXF 631
SK-OV-3 = system: SK-OV-3
SR = system: SR
TK-10 = system: TK-10
XF498 = system: XF498
MCF7 = system: MCF7
NCI/ADR-RES = system: NCI/ADR-RES

Row | SMILES | GI50 (A498) | GI50 (ACHN) | GI50 (CAKI-1) | GI50 (HCC 2998) | GI50 (HOP-18) | GI50 (HOP-92) | GI50 (LXFL 529) | GI50 (M14) | GI50 (MOLT-4) | GI50 (Malme-3M) | GI50 (NCI-H226) | GI50 (NCI-H522) | GI50 (RXF 393) | GI50 (RXF 631) | GI50 (SK-OV-3) | GI50 (SR) | GI50 (TK-10) | GI50 (XF498) | GI50 (MCF7) | GI50 (NCI/ADR-RES)
1 | CC(C)C1=CC2=CC[C@@H]3[C@](C)(CCC[C@@]3(C)C(=O)O)[C@H]2CC1 [ABIETIC ACID] | 49.8 µM (inactive) | 53.8 µM (inactive) | 36.2 µM (inactive) | > 80 µM (inactive) | > 75 µM (inactive) | 37.2 µM (inactive) | 64.3 µM (inactive) | 67.9 µM (inactive) | 40.2 µM (inactive) | > 67 µM (inactive) | 49.2 µM (inactive) | 45.7 µM (inactive) | > 62.1 µM (inactive) | 62.8 µM (inactive) | > 81.7 µM (inactive) | > 100 µM (inactive) | > 66.4 µM (inactive) | 73.6 µM (inactive) |  | 
2 | O=C1C=CC2OC(c3ccccc3)C(O)C2O1 (configuration not stated) | 2.27 µM (inactive) |  | 2.85 µM (inactive) | 2.47 µM (inactive) | 0.984 µM (active) | 2.15 µM (inactive) |  |  | 1.43 µM (inactive) | 3.02 µM (inactive) | 1.48 µM (inactive) | 1.35 µM (inactive) | 1.37 µM (inactive) |  | 13.8 µM (inactive) |  |  | 2.8 µM (inactive) | 6.07 µM (inactive) | 2.94 µM (inactive)
3 | CCCOC(=O)CNC(=O)OC(C)(C)C |  | > 100 µM (inactive) | > 100 µM (inactive) | > 100 µM (inactive) | 0.897 µM (active) | > 100 µM (inactive) | > 100 µM (inactive) | > 100 µM (inactive) |  | > 100 µM (inactive) | > 100 µM (inactive) | > 100 µM (inactive) | > 100 µM (inactive) | > 100 µM (inactive) | > 100 µM (inactive) | > 100 µM (inactive) | > 100 µM (inactive) | > 100 µM (inactive) |  | 
4 | COc1ccc(C2C(=O)C(Cl)N2Nc2nc(C)cc(O)n2)cc1OC (configuration not stated) |  | 19.4 µM (inactive) |  | 42.6 µM (inactive) | 6.41 µM (inactive) | 25.5 µM (inactive) | 41.3 µM (inactive) | 25.8 µM (inactive) | 18.7 µM (inactive) |  |  |  | 25.2 µM (inactive) |  |  | 18.8 µM (inactive) | 43.6 µM (inactive) |  |  | 
5 | COC(=O)[C@@H](O)[C@](O)(CCC(C)C)C(=O)O[C@@H]1C(OC)=C[C@]23CCCN2CCc2cc4c(cc2[C@H]13)OCO4 | 1.48 µM (inactive) |  | 1.77 µM (inactive) | 0.233 µM (active) | 2.46 µM (inactive) | 1.05 µM (active) |  |  | 0.32 µM (active) | 0.459 µM (active) | 1.64 µM (inactive) | 0.598 µM (active) | 0.689 µM (active) |  | 1.17 µM (inactive) |  |  |  | 0.351 µM (active) | 11.8 µM (inactive)
6 | CCOC(=O)C1C(c2cc(OC)c(O)c(OC)c2)c2cc3c(cc2OC1(C)O)OCO3 (configuration not stated) |  | 55.2 µM (inactive) | 26 µM (inactive) |  | > 100 µM (inactive) | 11.5 µM (inactive) |  | 74.3 µM (inactive) | 35 µM (inactive) | > 100 µM (inactive) |  |  |  | 75.9 µM (inactive) | > 100 µM (inactive) |  | > 100 µM (inactive) | 31 µM (inactive) |  | 
7 | Cn1ncc2c(=O)[nH]c(-c3ccccc3)nc21 |  | > 100 µM (inactive) | > 100 µM (inactive) | > 100 µM (inactive) | < 0.01 µM (active) |  |  | > 100 µM (inactive) | > 100 µM (inactive) | > 100 µM (inactive) |  | > 100 µM (inactive) | > 100 µM (inactive) | > 100 µM (inactive) | > 100 µM (inactive) |  | > 100 µM (inactive) | > 100 µM (inactive) |  | 
8 | CCOC(=O)c1c(NC(=S)NCc2ccccc2)sc2c1CCN(C)C2 | 59.6 µM (inactive) | 89.5 µM (inactive) | > 100 µM (inactive) |  |  |  |  | > 100 µM (inactive) | 20.4 µM (inactive) |  | > 100 µM (inactive) |  |  |  |  |  | 64.9 µM (inactive) |  | 52.6 µM (inactive) | > 100 µM (inactive)
9 | CC(=O)OC1C=C(C=O)C(O)(C=O)C2(C)CCCC(C)(C)C12 (configuration not stated) | 1.28 µM (inactive) |  | 1 µM (active) | 2.61 µM (inactive) | 0.931 µM (active) | 1.05 µM (active) |  |  | 0.37 µM (active) | 0.971 µM (active) | 2.69 µM (inactive) | 0.456 µM (active) | 0.491 µM (active) |  | 4.34 µM (inactive) |  |  | 1.49 µM (inactive) | 1.89 µM (inactive) | 1.8 µM (inactive)
10 | CCCCCCCCC1=CCC(CN(C)C)C1=O (configuration not stated) | > 43.9 µM (inactive) |  |  | 14 µM (inactive) |  | 16.9 µM (inactive) |  |  | 19 µM (inactive) | 17.8 µM (inactive) | > 51.4 µM (inactive) | 16.7 µM (inactive) | 19.7 µM (inactive) |  | > 100 µM (inactive) |  |  |  | 4.69 µM (inactive) | 20.5 µM (inactive)
11 | Cc1cc2cccc(Cl)c2nc1C(=O)c1ccccc1 |  | > 100 µM (inactive) | > 100 µM (inactive) | > 100 µM (inactive) | 18.7 µM (inactive) |  | > 100 µM (inactive) | 76.2 µM (inactive) |  | 50.5 µM (inactive) | > 100 µM (inactive) | 41.2 µM (inactive) | 26.6 µM (inactive) | 89.3 µM (inactive) |  | > 100 µM (inactive) | > 100 µM (inactive) | 82 µM (inactive) |  | 
12 | CSCSCC(CO)NC(=O)/C=C\c1c(C)[nH]c(=O)[nH]c1=O (configuration not stated) | 23.6 µM (inactive) |  | 2.88 µM (inactive) | 5.57 µM (inactive) | 46.1 µM (inactive) | 0.838 µM (active) |  |  | 7.74 µM (inactive) | 8.18 µM (inactive) | 35 µM (inactive) | 0.959 µM (active) | 26.5 µM (inactive) |  | 11.1 µM (inactive) |  |  | 1.61 µM (inactive) | 2.19 µM (inactive) | 19 µM (inactive)
13 | NC(=O)C(=O)N/N=C1/c2ccccc2CC1C1(O)C(=O)Nc2c(Cl)cc(Cl)cc21 (configuration not stated) | > 100 µM (inactive) | > 100 µM (inactive) | 81.8 µM (inactive) | > 100 µM (inactive) | > 100 µM (inactive) | > 100 µM (inactive) |  |  | > 100 µM (inactive) | > 100 µM (inactive) | > 100 µM (inactive) | 61.4 µM (inactive) | 92 µM (inactive) |  | > 100 µM (inactive) | 70.3 µM (inactive) | > 100 µM (inactive) | > 100 µM (inactive) |  | 
